Assays:
[1] = Bone powder binding, LC/MS detection; conditions: 100 μM compound, Tris-HCl pH 7, 0.15M NaCl, ground rat tibia bone, 10 min
Protocol: The ability of the example molecules to bind to bone powder was established in two parallel fashions, using either LC/MS or fluorometric detection. For LC/MS detection, a stock solution (5 mM) of the compound to be tested was added to 0.1M Tris-HCl buffer pH 7, 0.15M NaCl to reach a final concentration of 100 μM. Triplicate samples (1 mL) of the compound solutions were intensively shaken for 10 min with or without 25 mg of fresh or 20 mg of vacuum dried ground rat tibia bone. The samples were then centrifuged for 15 min at 10 000 g. The presence of unbound compound was measured by injection of 30 μL of each of the supernatants into an Agilent 1100™ LC/UV system. For fluorometric detection, an individual compound was dissolved in PBS or water (compound 52) and resuspended at a concentration of 1 mg/ml in a slurry of bone meal powder (Now Foods, Bloomingdale, Ill., USA) in PBS at 10 mg/ml. The suspension of drug/prodrug in bone meal powder was incubated at 37° C. for 1 h to allow for binding, and centrifuged at 13 000 rpm for 2 min, before recovering the supernatant. The bone meal powder pellet was then washed three times with 1 ml of PBS. All supernatants were saved and assessed for fluoroquinolone content by fluorescence measurements at excitation/emission wavelengths of 280/465 nm. The amount of fluoroquinolone was determined from standard curves generated for each experiment. Amount of drug/prodrug bound to bone powder was deduced from the difference between the input amount (typically 1 mg) and the amount recovered in the supernatants after binding. In all binding experiments, >99% of input drug was recovered in the supernatant for the parent drugs.

[2] = Regenerated moxifloxacin in infected and uninfected rat tibiae; assay type: in vivo; conditions: 52 IV 15.8 or 31.6 mg/kg one day after surgery; tibiae one and six days after treatment
Protocol: Rats were infected as in Example 7, and treated IV with either 15.8 or 31.6 mg/kg of body weight of prodrug 52 one day after surgery. One day and six days following the treatment, the tibiae were collected as described previously. The levels of regenerated moxifloxacin 3 were determined as follows.
The experimentally obtained whole tibia was ground to a powder which was suspended in 5% formic acid in methanol (500 mg/1.6 ml) to extract the released moxifloxacin 3. The mixture was vortexed for 10 minutes and centrifuged for 20 minutes at 1250 g.
Standards (from 5 to 1000 ng), QCs (25 and 250 ng) and blanks were prepared (in duplicate) as follows: to blank tibia powder (50 mg, not dried) was added the 5% formic acid solution in methanol (160 μl) and the spiking solution of moxifloxacin 3 in water (10 μl). The mixtures were vortexed for 10 minutes and centrifuged for 10 minutes at 2500 g. The supernatant was transferred into another vial, spiked with the internal standard, vortexed and evaporated to dryness. In each case, the resulting dried residues (samples, standards, QCs and blanks) were reconstituted in 200 μl of water, vortexed for 15 min and centrifuged for 15 min at 10 000 g. The solution (20 μl) was injected into the LC/MS. The LC/MS method is as described in Example 6.

Binding to bone (%) LC/MS [1]: 94.2 ± 3.2% | level of regenerated moxifloxacin 3, uninfected versus infected tibiae [2]: not significantly different
Structure (SMILES): COc1c(N2C[C@@H]3CCCN[C@@H]3C2)c(F)cc2c(=O)c(C(=O)OCC(=O)NC(P(=O)(O)O)P(=O)(O)O)cn(C3CC3)c12 [Compound 52, (1,1-Bisphosphonomethylcarbamoyl)methyl 1-cyclopropyl-6-fluoro-1,4-dihydro-7-((4aS,7aS)-octahydropyrrolo[3,4-b]pyridin-6-yl)-8-methoxy-4-oxoquinoline-3-carboxylate]
